Data as given in patent US20150306169A1, “METHOD AND COMPOSITIONS FOR SYNCHRONIZING TIME OF INSEMINATION IN GILTS” (JBS UNITED ANIMAL HEALTH II LLC, priority 2012, published 2015).

Experiments:
Assay type in all cases: in vivo, swine
gilts [1] = experiment: Ovulation monitoring by transrectal ultrasonography after triptorelin gel at 96, 120 or 144 h post-MATRIX (Example 1); settings: raw average, PTK 1-07 (rep 3), 200 mcg T at 120 h post-MATRIX
Procedure: All gilts were individually fed MATRIX® as a top-dress for 14 days at the recommended rate of 15 mg/gilt/day. Gilts were withdrawn from MATRIX® feeding (last top feed in the morning on Day 0) and allotted to treatments. Controls were treated with a 1.2% methylcellulose gel formulation without triptorelin at 96 hours following MATRIX® withdrawal (last top-dress). The remaining gilts received 200 mcg triptorelin, as the acetate, in a 1.2% methylcellulose gel formulation intravaginally at various times after MATRIX® withdrawal. The four treatments were: 1) vehicle gel (VG) treatment at 96 hours after MATRIX® withdrawal, 2) triptorelin gel (TG) treatment at 96 hours after MATRIX® withdrawal, 3) TG treatment at 120 hours after MATRIX® withdrawal and 4) TG treatment at 144 hours after MATRIX® withdrawal. All gilts were monitored for their estrous and ovulatory status as described below. Gilts included in replicate 1 were selected from terminal line commercial production gilts located in grow/finish barns. Sexual maturity, as indicated by one or more estrous periods, was not verified prior to the start of MATRIX® feeding. Gilts included in replicate 2 were selected from a maternal line gilt population. Sexual maturity was verified by at least one estrous period verified and recorded prior to starting MATRIX® feeding.
The ovulatory status of all gilts was monitored by transrectal ultrasonography. For replicate one, ovulation was monitored two times on Day 5, then three times a day from Day 6 to Day 8. For replicate two, ovulation was monitored three times a day from Day 5 to Day 8. An Aloka 500 ultrasound machine with a 7.5 MHz linear array transducer attached to a fixed-angle PVC stabilizing rod to facilitate insertion into the rectum was used for this purpose. The transducer and PVC rod were coated with a gynecological lubricant and gently inserted into the rectum until the ovaries were visualized, one at a time. The diameters of the three largest follicles were recorded (to the nearest 0.1 mm) at each scanning. A gilt was declared to have ovulated when the number of large follicles (≧6.5 mm) fell to less than 3.
(§1) A single 2 mL dose of triptorelin gel or vehicle gel was deposited within approximately 1-2 cm posterior to the cervix with a catheter similar to those used for artificial insemination. The dose was delivered using a standard multi-dose applicator attached to the catheter. A new disposable sheath, which surrounds the catheter, was used for each gilt.
Data were analyzed using the Mixed Models procedures of SAS. Models included main effects of time of treatment following the last feeding of MATRIX®, replicate, and treatment by replicate interaction. Differences between treatments were tested on least squares means estimates using the T test at P <0.05. Data for analysis were tested for assumptions of data normality.

gilts [2] = experiment: Estrus observation after triptorelin gel (Example 1); settings: raw average, PTK 1-07 (rep 3); 200 mcg T at 120 h post-MATRIX
Procedure: All gilts were individually fed MATRIX® as a top-dress for 14 days at the recommended rate of 15 mg/gilt/day. Gilts were withdrawn from MATRIX® feeding (last top feed in the morning on Day 0) and allotted to treatments. Controls were treated with a 1.2% methylcellulose gel formulation without triptorelin at 96 hours following MATRIX® withdrawal (last top-dress). The remaining gilts received 200 mcg triptorelin, as the acetate, in a 1.2% methylcellulose gel formulation intravaginally at various times after MATRIX® withdrawal. The four treatments were: 1) vehicle gel (VG) treatment at 96 hours after MATRIX® withdrawal, 2) triptorelin gel (TG) treatment at 96 hours after MATRIX® withdrawal, 3) TG treatment at 120 hours after MATRIX® withdrawal and 4) TG treatment at 144 hours after MATRIX® withdrawal. All gilts were monitored for their estrous and ovulatory status as described below. Gilts included in replicate 1 were selected from terminal line commercial production gilts located in grow/finish barns. Sexual maturity, as indicated by one or more estrous periods, was not verified prior to the start of MATRIX® feeding. Gilts included in replicate 2 were selected from a maternal line gilt population. Sexual maturity was verified by at least one estrous period verified and recorded prior to starting MATRIX® feeding. […]
Data were analyzed using the Mixed Models procedures of SAS. […]

gilts [3] = experiment: Ovulation monitoring by transrectal ultrasonography, triptorelin gel dose 100-400 mcg at 120 h post-MATRIX (Example 5); settings: for % of Sows Ovulating: raw average, PTK 2-07
Procedure: (§2) All gilts were individually fed MATRIX® as a top-dress for 14 or 15 days at the recommended rate of 15 mg/gilt/day. Gilts were withdrawn from MATRIX® feeding (last top-dress in the morning on Day 0) and allocated to each of the following treatments. Controls were vehicle gel treated (vehicle gel without triptorelin) at 120 (+/−2) hours following MATRIX® withdrawal (last top dress). The other gilts were given 100, 200 or 400 mcg triptorelin as the acetate in a methylcellulose gel formulation 120 (+/−2) hours following MATRIX® withdrawal. The four treatments were: • 1. Vehicle gel (VG): vehicle gel without triptorelin at 120 (+/−2) hours after MATRIX® withdrawal. • 2. TG 100: 100 mcg (2 mL 50 mcg/mL) triptorelin gel at 120 (+/−2) hours after MATRIX® withdrawal. • 3. TG 200: 200 mcg (2 mL 100 mcg/mL) triptorelin gel at 120 (+/−2) hours after MATRIX® withdrawal. • 4. TG 400: 400 mcg (2 mL 200 mcg/mL) triptorelin gel at 120 (+/−2) hours after MATRIX® withdrawal.
Ovulation was monitored twice on Day 5 (8 hours and 16 hours post-treatment) and every 8 hours on Day 6 and Day 7 or until ovulation was confirmed or 176 hours following last MATRIX® feeding. The ovulatory status of all gilts was monitored by transrectal ultrasonography. An Aloka 500 ultrasound machine is used for this purpose, with a 7.5 MHz linear array transducer attached to a fixed-angle PVC stabilizing rod to facilitate insertion into the rectum. The transducer and PVC rod are coated with a gynecological lubricant and gently inserted into the rectum until the ovaries can be visualized, one at a time. The diameters of the three largest follicles were recorded (to the nearest 0.1 mm) at each scanning. A gilt was declared to have ovulated when the number of large follicles (≧6.5 mm) fell to less than 3.
as §1

gilts [4] = experiment: Estrus observation, triptorelin gel dose study (Example 5); settings: raw average, PTK 2-07
Procedure: as §2
For post-treatment estrus detection, gilts were housed in individual pens. Boars were housed in separate rooms, and/or at least 12 m away and downwind. To elicit signs of estrus, a mature boar was walked slowly in the alley in front of the gilts' crates, exposing each test gilt to visual, auditory and olfactory signals from the boar for up to 5 minutes. […]

LH = experiment: Serum LH surge after triptorelin gel (Example 5)
Procedure: A catheter was inserted non-surgically into the jugular vein (Kraeling et al. 1982) of a subpopulation of gilts in each treatment group (vehicle gel, n=8; 100 mcg triptorelin, n=6; 200 mcg triptorelin, n=7 and 400 mcg triptorelin, n=6). Ten mL blood samples were collected every 15 minutes for one hour prior to treatment, immediately following treatment (0) and at 0.5, 1, 2, 4, 6, 12, 18, 24, 36 and 48 hours after treatment. Blood samples were maintained at 4° C. until centrifuged at 800 x g for 15 minutes within 12 hours of collection. The resulting serum was stored frozen until assayed for LH using validated procedures for pig serum (Kesner et al., 1987 and Kraeling et al., 1982). Onset, duration, and magnitude of the LH surge were analyzed. The LH data were analyzed with the General Linear Models procedure of SAS. Differences between treatments were tested on least squares means estimates using the T test at P<0.05. Onset of the LH surge is when serum LH concentration is greater than or equal to two standard deviations of the mean of the pre-treatment serum LH concentrations. Duration of the LH surge is the period between onset and when serum LH concentration is again less than or equal to two standard deviations of the mean of the pre-treatment serum LH concentrations. Magnitude of the LH surge is the maximum serum LH concentration reached during the LH surge.

[5] = 200 mcg T in gel at 120 h post-MATRIX, relative to time of treatment, one gilt with surge

Compound: CC(C)C[C@H](NC(=O)[C@@H](Cc1c[nH]c2ccccc12)NC(=O)[C@H](Cc1ccc(O)cc1)NC(=O)[C@H](CO)NC(=O)[C@H](Cc1c[nH]c2ccccc12)NC(=O)[C@H](Cc1c[nH]cn1)NC(=O)[C@@H]1CCC(=O)N1)C(=O)N[C@@H](CCCNC(=N)N)C(=O)N1CCC[C@H]1C(=O)NCC(N)=O [T, pGlu-His-Trp-Ser-Tyr-D-Trp-Leu-Arg-Pro-Gly-NH2]
- % of Sows Ovulating (gilts [1]; 128 h post-MATRIX (8 h post-T)): 0.0%
- % of Sows Ovulating (gilts [1]; 136 h post-MATRIX (16 h post-T)): 10.0%
- % of Sows Ovulating (gilts [1]; 144 h post-MATRIX (24 h post-T)): 30.0%
- % of Sows Ovulating (gilts [1]; 152 h post-MATRIX (32 h post-T)): 70.0%
- % of Sows Ovulating (gilts [1]; 160 h post-MATRIX (40 h post-T)): 80.0%
- % of Sows Ovulating (gilts [1]; 168 h post-MATRIX (48 h post-T)): 90.0%
- % of Sows Ovulating (gilts [1]; 176 h post-MATRIX (56 h post-T)): 100.0%
- Estrous Expression (%) (gilts [2]): 100.0%
- Percentage ovulated by 48 hours (gilts [3]; 100 mcg T in gel at 120 h post-MATRIX, catheterized subpopulation n = 6): 100%
- Percentage ovulated by 48 hours (gilts [3]; 200 mcg T in gel at 120 h post-MATRIX, catheterized subpopulation n = 7): 100%
- Percentage ovulated by 48 hours (gilts [3]; 400 mcg T in gel at 120 h post-MATRIX, catheterized subpopulation n = 6): 100%
- % of Sows Ovulating (gilts [3]; 100 mcg T at 120 h post-MATRIX, 128 h post-MATRIX (8 h post-T)): 0.0%
- % of Sows Ovulating (gilts [3]; 100 mcg T at 120 h post-MATRIX, 136 h post-MATRIX (16 h post-T)): 5.0%
- % of Sows Ovulating (gilts [3]; 100 mcg T at 120 h post-MATRIX, 144 h post-MATRIX (24 h post-T)): 20.0%
- % of Sows Ovulating (gilts [3]; 100 mcg T at 120 h post-MATRIX, 152 h post-MATRIX (32 h post-T)): 30.0%
- % of Sows Ovulating (gilts [3]; 100 mcg T at 120 h post-MATRIX, 160 h post-MATRIX (40 h post-T)): 60.0%
- % of Sows Ovulating (gilts [3]; 100 mcg T at 120 h post-MATRIX, 168 h post-MATRIX (48 h post-T)): 95.0%
- % of Sows Ovulating (gilts [3]; 100 mcg T at 120 h post-MATRIX, 176 h post-MATRIX (56 h post-T)): 100.0%
- % of Sows Ovulating (gilts [3]; 200 mcg T at 120 h post-MATRIX, 128 h post-MATRIX (8 h post-T)): 0.0%
- % of Sows Ovulating (gilts [3]; 200 mcg T at 120 h post-MATRIX, 136 h post-MATRIX (16 h post-T)): 0.0%
- % of Sows Ovulating (gilts [3]; 400 mcg T at 120 h post-MATRIX, 128 h post-MATRIX (8 h post-T)): 4.5%
- % of Sows Ovulating (gilts [3]; 400 mcg T at 120 h post-MATRIX, 136 h post-MATRIX (16 h post-T)): 9.1%
- % of Sows Ovulating (gilts [3]; 400 mcg T at 120 h post-MATRIX, 168 h post-MATRIX (48 h post-T)): 100.0%
- % of Sows Ovulating (gilts [3]; 400 mcg T at 120 h post-MATRIX, 176 h post-MATRIX (56 h post-T)): 100.0%
- Estrous Expression (%) (gilts [4]; 100 mcg T at 120 h post-MATRIX): 75.0%
- Estrous Expression (%) (gilts [4]; 200 mcg T at 120 h post-MATRIX): 81.0%
- Gilts, which displayed a LH surge (LH; 100 mcg T in gel at 120 h post-MATRIX, number of n = 6 catheterized gilts): 4
- Onset of LH surge (LH; 100 mcg T in gel at 120 h post-MATRIX, relative to time of treatment, LS mean ± SE): 4 ± 3
- Gilts, which displayed a LH surge (LH; 200 mcg T in gel at 120 h post-MATRIX, number of n = 7 catheterized gilts): 1
- Duration of LH surge (LH; 200 mcg T in gel at 120 h post-MATRIX, one gilt with surge): 18
- Onset of LH surge (LH; [5]): 0.5
- Time of maximum LH conc. (LH; [5]): 4 h
- Gilts, which displayed a LH surge (LH; 400 mcg T in gel at 120 h post-MATRIX, number of n = 6 catheterized gilts): 5
- Onset of LH surge (LH; 400 mcg T in gel at 120 h post-MATRIX, relative to time of treatment, LS mean ± SE): 4 ± 4
